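Growth conditions: 96-well plates. Treatment: test compound, 48 hours, 5 concentrations. Analysis: linear interpolation between bracketing concentrations; unreached endpoints set to highest concentration. GI50: concentration for 50% inhibition of growth. TGI: concentration producing complete growth inhibition.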
How the values were obtained:
Test in all cases: inhibition of tumour cell growth, NCI panel, 48 h
SK-OV-3 ovarian = tested on: SK-OV-3 ovarian
SN12C renal = tested on: SN12C renal
SF-268 CNS = tested on: SF-268 CNS
HCT-15 colon = tested on: HCT-15 colon
CCRF-CEM leukemia = tested on: CCRF-CEM leukemia
HL-60(TB) leukemia = tested on: HL-60(TB) leukemia
TK-10 renal = tested on: TK-10 renal
RPMI-8226 leukemia = tested on: RPMI-8226 leukemia
SNB-75 CNS = tested on: SNB-75 CNS
DU-145 prostate = tested on: DU-145 prostate

SMILES | TGI (SK-OV-3 ovarian) [µM] | TGI (SN12C renal) [µM] | TGI (SF-268 CNS) [µM] | TGI (HCT-15 colon) [µM] | TGI (CCRF-CEM leukemia) [µM] | TGI (HL-60(TB) leukemia) [µM] | TGI (TK-10 renal) [µM] | TGI (RPMI-8226 leukemia) [µM] | TGI (SNB-75 CNS) [µM] | GI50 (RPMI-8226 leukemia) [µM] | GI50 (SK-OV-3 ovarian) [µM] | GI50 (SN12C renal) [µM] | GI50 (SNB-75 CNS) [µM] | GI50 (SF-268 CNS) [µM] | GI50 (HCT-15 colon) [µM] | GI50 (HL-60(TB) leukemia) [µM] | GI50 (TK-10 renal) [µM] | GI50 (DU-145 prostate) [µM] | TGI (DU-145 prostate) [µM] | GI50 (CCRF-CEM leukemia) [µM]
CCOC(=O)c1[nH]c(COC(C)=O)c(CCCOC(C)=O)c1CCCOC(C)=O | > 100 | > 100 | > 100 | > 100 | > 100 | > 100 | > 100 |  |  |  |  |  |  |  |  |  |  |  |  | 
COc1ccccc1NC(=O)C1=C(C)NC(C)=C(C(=O)Nc2ccccc2OC)C1c1ccc([N+](=O)[O-])cc1 | > 100 | > 100 | > 100 | > 100 | > 100 | > 100 | > 100 | > 100 | > 100 |  |  |  |  |  |  |  |  |  |  | 
CCOC(=O)CCc1c(C)c2c(OC(C)=O)cc(OC(C)=O)cc2oc1=O |  | 87 | 77.4 |  |  | > 100 | > 100 |  | > 100 |  |  |  |  |  |  |  |  |  |  | 
CC(=O)Oc1ccc(Nc2c3ccccc3nc3ccccc23)cc1 | 5.91 | 10.3 | 12.4 | 3.4 |  | 6.14 | 6.22 | 23.7 | 5.08 | 2.25 | 1.47 | 1.42 | 0.544 | 1.86 | 1.13 | 0.705 | 1.68 | 0.536 | 3 | 
CCOC(=O)C1=C(C)N(N)C(=S)NC1c1ccc(C)cc1 (stereo not drawn) |  | > 100 | > 100 | > 100 | > 100 |  | > 100 | > 100 |  | 44.7 |  | > 100 |  | 67 | 9.1 |  | 40.2 |  | 12.3 | 49.8
O=C1CSC(Cc2nc3ccccc3[nH]2)=N1 | 51.3 | 44.8 | > 31.6 | 37.7 | > 94 | 97.5 | 48.1 | > 100 | 27.4 |  |  |  |  |  |  |  |  |  |  | 
CSC1(CC(=O)N(C)C)C(=O)Nc2ccccc21 (stereo not drawn) | > 100 |  | > 100 | > 100 |  |  | > 100 | > 100 | > 100 |  |  |  |  |  |  |  |  |  | > 100 | 
O/N=C\c1c(O)ccc2ccccc12 | > 100 | > 100 | > 100 | > 100 | > 100 | 54.9 | > 100 | > 100 | > 100 |  |  |  |  |  |  |  |  |  |  | 
O=C(O)c1ccccc1-c1ccccc1C(=O)Nc1ccc2c(c1)Cc1cc(F)ccc1-2 | > 100 | 45.5 | > 100 | 38 |  |  | 90.9 | 82.8 | > 100 |  |  |  |  |  |  |  |  |  | > 100 | 
O=[N+]([O-])c1ccc(-n2nnc(C3=NCCCN3)c2-c2ccc(Cl)cc2)cc1 | > 100 | > 100 | > 100 | > 100 | > 100 | > 100 | > 100 | > 100 | > 100 |  |  |  |  |  |  |  |  |  |  | 
O=C(CCC/C(CC(=O)c1ccc(Br)cc1)=N\O)Nc1ccccc1 |  | > 100 | > 100 |  | > 100 | > 100 | > 100 | > 100 | > 100 |  |  |  |  |  |  |  |  |  |  | 
COC(=O)C12C3C4C5(C(=O)OC)C(C1C35C(=O)N(C(C)C)C(C)C)C42C(=O)N(C(C)C)C(C)C (stereo not drawn) | > 50 | > 50 | > 50 | > 33.7 | > 50 | > 50 | > 50 | > 50 | > 50 |  |  |  |  |  |  |  |  |  |  | 
O=C(CCCN1CC=C(n2c(=O)[nH]c3ccccc32)CC1)c1ccc(F)cc1 | > 100 | > 100 |  | > 100 | > 100 | 67.4 | > 100 | > 100 |  | 30.4 | > 100 | 96.2 |  |  | 37.4 | 24.3 | 87 | 68.1 | > 100 | 35.5
Cc1cn2c(/C=C3/C(=O)Nc4ccccc43)c(-c3ccc(Cl)cc3)nc2s1 |  |  | 24.4 | 13.4 | > 50 |  | 17.3 | 39.2 |  | 12.3 |  |  |  | 7.41 | 6.93 |  | 8.99 |  |  | 17.6
CC(=O)Oc1ccccc1C(=O)N=C1[Se]CCCN1C(=O)c1ccccc1OC(C)=O | 6.16 | 24.7 |  | 7.28 |  | 5.63 | 3.81 | 6.13 | 4.69 | 2.42 | 3.4 | 4.12 | 2.01 |  | 2.53 | 2.14 | 1.87 | 1.82 | 3.26 | 
NC1CCCC[C@H]1N.N[C@@H]1CCCC[C@@H]1N.O=C(P(=O)([O-])[O-])P(=O)([O-])[O-].[Pt+4].[Pt+4] | > 100 | > 100 | > 100 | > 100 | > 100 | > 100 | > 100 | > 100 | > 100 | 31.1 | > 100 | > 100 | > 100 | > 100 | 63.8 | 18.3 | > 100 |  |  | 14.1
CCN(CC)CCNCC(=O)Oc1ccc(/C=C/C(=O)CC(=O)/C=C/c2ccc(OC(=O)CNCCN(CC)CC)c(OC)c2)cc1OC | 12.6 | 79.6 | > 100 | 15.3 |  | 91.8 | 23.5 | 6.01 | 28.1 | 1.91 | 3.71 | 3.32 | 6.31 | 3.68 | 3.68 | 3.39 | 6.72 | 2.74 | 9.56 | 
COc1cc2c(cc1OCc1ccccc1)CNCC2 | > 100 | > 100 | > 100 | > 100 | > 100 | > 100 | > 100 |  | > 100 |  |  |  |  |  |  |  |  |  |  | 
CC(C)(C)C(=O)/C=C/c1ccc(Oc2ccccc2)cc1 | > 100 | 46 | 62.1 |  | 40.5 |  | 59.7 | 29.3 | 74.5 |  |  |  |  |  |  |  |  |  |  | 

— PubChem BioAssay (NCI)
